What was measured:
[1] = dog with chronic diarrhea fed α-cyclodextrin with dry food; assay type: in vivo; conditions: 2.5 g α-cyclodextrin with two cups dry food twice a day for two and one-half weeks, α-cyclodextrin:fat about 1:9
Method: An eighteen month old, neutered male dog of unknown parentage having chronic diarrhea was de-wormed twice and placed on hypoallergenic food in an effort to control the diarrhea. However, the chronic diarrhea was not alleviated and the dog stopped eating for a day or two on two or three separate occasions.
The dog was then treated with α-cyclodextrin as follows: The dog was placed on a diet comprising a teaspoon (2.5 g) of α-cyclodextrin mixed with two cups dry food twice a day for two and one-half weeks. Based on the fat content in the food, the ratio of α-cyclodextrin to fat was about 1:9. The dog's chronic diarrhea was eliminated during this period except for an acute episode of loose stools after a day of swimming in a river but the stool has been formed ever since.
The dog very quickly lost his appetite, self restricted his food intake by about one-half and began eating grass, grass helps to bind his stool. The diarrhea returned.

[2] = human volunteer on high fat diet with α-cyclodextrin: weight loss and blood parameters; assay type: in vivo; conditions: one volunteer; for HDL cholesterol: baseline 0.97; for Triglycerides: baseline 2.76; for Insulin Resistance: baseline 2.85; for Cholesterol: baseline 4.76
Method: The α-cyclodextrin was added to the subject's diet in a proportion of one gram Of α-cyclodextrin for every nine grams of fat that were estimated to be consumed by the subject. […] 200 days, approximately 6 months— By 6 months the subject's body weight was reduced by 32 pounds. In addition to the weight loss, within the first two weeks of the study, the subject's elevated blood pressure fell to the point where they were forced to reduce their prescribed beta-blacker by one-third. Their blood triglycerides were also assayed during this time and their blood serum triglyceride levels were decreased by 23% within the first month and 46% by the end of six months.

[3] = biological target: T1, porcine pancreatic lipase (Sus scrofa, UniProt P00591); assay: lipolytic activity of porcine pancreatic lipase on purified olive oil premixed with α-cyclodextrin; assay type: biochemical
T1 sequence (P00591 1-450): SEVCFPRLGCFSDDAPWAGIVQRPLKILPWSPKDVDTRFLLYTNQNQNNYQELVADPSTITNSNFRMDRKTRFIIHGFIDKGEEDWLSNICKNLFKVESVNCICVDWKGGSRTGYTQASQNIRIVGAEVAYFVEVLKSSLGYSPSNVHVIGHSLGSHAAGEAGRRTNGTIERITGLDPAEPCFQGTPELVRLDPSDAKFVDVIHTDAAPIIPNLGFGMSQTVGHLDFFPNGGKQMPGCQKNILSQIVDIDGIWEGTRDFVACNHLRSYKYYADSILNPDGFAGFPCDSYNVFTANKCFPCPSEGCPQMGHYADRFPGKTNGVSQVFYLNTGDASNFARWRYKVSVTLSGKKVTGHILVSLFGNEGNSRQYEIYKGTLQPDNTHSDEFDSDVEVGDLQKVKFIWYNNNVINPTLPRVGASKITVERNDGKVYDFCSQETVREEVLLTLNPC
Text: If this were the case it would be difficult to imagine being able to feed enough of the α-cyclodextrin to an animal in order to complex sufficient triglycerides to make a significant difference in body weight as triglycerides and α-cyclodextrin have similar molecular weights. However, from the data disclosed herein wherein e.g., a diet comprising 4% α-cyclodextrin and 40% fat inhibits weight gain and reduces body fat mass, as the molecular weights are very similar, we have calculated that one α-cyclodextrin molecule can complex approximately nine molecules of triglyceride, the equivalent of 27 free fatty acids. Thus we can convert this directly to I gram of α-cyclodextrin complexes approximately 9 grams of triglyceride. […] As these particles are formed in the midst of chyme, a very complex “soup”, the particles may be analogous to lipoprotein particles of the blood stream.

[4] = Wistar rat low fat/high fat diet feeding study: food and energy intake, body weight, body composition; assay type: in vivo, Wistar rats; conditions: 6 week study, α-cyclodextrin:fat 1:10 w/w in diet
Text: To examine the effect of α-cyclodextrin on body weight gain and plasma lipid levels in animals fed high fat and low fat diets, we conducted a short-term feeding study using Wistar rats. Forty-two male Wistar rats, 10 weeks old, were obtained from Harlan-Sprague Dawley. Following a one-week adaptation while being fed the control low fat diet (LF), they were divided equally into two groups, one low-fat (LF) diet and the other high-fat (HF) diet. These two groups were further divided into two subgroups. Two groups were fed the LF or HF diet and served as controls for the other two test groups which were fed the LF or HF diet containing α-cyclodextrin, wherein the amount of α-cyclodextrin was such that the ratio of α-cyclodextrin to fat in the food was 1:10 w/w. […]
If this were the case it would be difficult to imagine being able to feed enough of the α-cyclodextrin to an animal in order to complex sufficient triglycerides to make a significant difference in body weight as triglycerides and α-cyclodextrin have similar molecular weights. However, from the data disclosed herein wherein e.g., a diet comprising 4% α-cyclodextrin and 40% fat inhibits weight gain and reduces body fat mass, as the molecular weights are very similar, we have calculated that one α-cyclodextrin molecule can complex approximately nine molecules of triglyceride, the equivalent of 27 free fatty acids. […]

With `OC[C@H]1O[C@@H]2O[C@H]3[C@H](O)[C@@H](O)[C@@H](O[C@H]4[C@H](O)[C@@H](O)[C@@H](O[C@H]5[C@H](O)[C@@H](O)[C@@H](O[C@H]6[C@H](O)[C@@H](O)[C@@H](O[C@H]7[C@H](O)[C@@H](O)[C@@H](O[C@H]1[C@H](O)[C@H]2O)O[C@@H]7CO)O[C@@H]6CO)O[C@@H]5CO)O[C@@H]4CO)O[C@@H]3CO` [α-cyclodextrin] the chronic diarrhea [1] was “eliminated”, the body weight reduction ([2]; initial weight 267 pounds, 1 g α-cyclodextrin per 9 g fat, by 6 months) was 32 pounds and the “Body Mass Index” value ([2]; 1 month) was 39.17. For the same compound, the Hip ([2]; 1 month) was 127 cm, the Waist ([2]; 1 month) was 124 cm and the HDL cholesterol ([2]; 1 month) was 1.00 mmol/L. For the same compound, the Triglycerides ([2]; 1 month) was 2.13 mmol/L, the “Insulin Resistance” value ([2]; 1 month) was 2.13 and the Cholesterol ([2]; 1 month) was 4.76 mmol/L. For the same compound, the “Body Mass Index” value ([2]; 6 months) was 37.27, the Hip ([2]; 6 months) was 117 cm and the Waist ([2]; 6 months) was 117 cm. The HDL cholesterol ([2]; 6 months) was 1.11 mmol/L, the Triglycerides ([2]; 6 months) was 1.50 mmol/L and the “Insulin Resistance” value ([2]; 6 months) was 1.35. The Cholesterol ([2]; 6 months) was 4.0 mmol/L, the “decrease of blood serum triglyceride levels” value ([2]; by the end of six months) was 46% and the “decrease of blood serum triglyceride levels” value ([2]; within the first month) was 23%. The elevated blood pressure ([2]; within the first two weeks) was “fell”, the “lipolytic activity of porcine pancreatic lipase” value [3] was “significantly reduced” and the “rate of body weight gain” value [4] was “gained weight at a slower rate relative to their respective control groups”.

Source: patent US9326539B2, “Compositions comprising dietary fat complexers and methods for their use” (Soho Flordis International Pty. Ltd., priority 2002, dated 2016)
